How the values were obtained:
CETP [1] = target: T1, CETP (Homo sapiens, UniProt P11597); assay: Assay of CETP inhibition in human plasma: transfer of [3H]CE from [3H]CE-HDL to VLDL and LDL; type: biochemical; parameters: Blood was obtained from healthy volunteers; from tissue; host or cells: pooled human EDTA plasma from healthy volunteers; settings: inhibition of transfer of [3H]CE from [3H]CE-HDL to VLDL and LDL
T1 sequence (P11597 18-493): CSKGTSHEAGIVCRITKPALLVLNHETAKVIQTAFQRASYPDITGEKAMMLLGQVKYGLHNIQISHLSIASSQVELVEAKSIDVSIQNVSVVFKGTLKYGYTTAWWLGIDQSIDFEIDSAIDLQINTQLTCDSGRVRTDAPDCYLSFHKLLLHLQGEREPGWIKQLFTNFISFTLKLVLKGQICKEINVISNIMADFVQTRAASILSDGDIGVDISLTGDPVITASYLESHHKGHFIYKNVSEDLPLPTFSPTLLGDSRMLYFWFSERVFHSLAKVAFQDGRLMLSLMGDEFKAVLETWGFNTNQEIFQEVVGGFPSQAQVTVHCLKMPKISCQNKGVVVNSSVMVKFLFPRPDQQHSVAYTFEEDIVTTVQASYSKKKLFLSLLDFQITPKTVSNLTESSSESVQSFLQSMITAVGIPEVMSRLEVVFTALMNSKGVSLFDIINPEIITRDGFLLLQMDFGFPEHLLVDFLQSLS
Experimental: ASSAY OF CETP INHIBITION IN HUMAN PLASMA
Blood was obtained from healthy volunteers, recruited from the personnel of Monsanto Company, Saint Louis, MO. Blood was collected in tubes containing EDTA (EDTA plasma pool). The EDTA human plasma pool, previously stored at -20 °C, was thawed at room temperature and centrifuged for 5 minutes to remove any particulate matter. […] Equal volumes (396 µL) of the plasma containing the [^3H]CE-HDL were added by pipette into micro tubes (Titertube®, Bio-Rad laboratories, Hercules, CA). Inhibitor compounds, dissolved as 20-50 mM stock solutions in DMSO, were serially diluted in DMSO (or an alternative solvent in some cases, such as dimethylformamide or ethanol). Four µL of each of the serial dilutions of inhibitor compounds or DMSO alone were then added to each of the tubes containing plasma (396 µL). After mixing, triplicate aliquots (100 µL) from each plasma tube were then transferred to wells of 96-well roundbottomed polystyrene microtiter plates (Corning, Corning, NY). Plates were sealed with plastic film and incubated at 37 °C for 4 hours. "Test" samples contained plasma with dilutions of inhibitor compounds. "Control" samples contained plasma with DMSO diluted to the same concentration as the test samples, but without inhibitor. "Blank" samples were prepared as "control" samples, but were left in the micro tubes at 4 °C for the 4 hour incubation and were then added to the microtiter wells at the end of the incubation period. VLDL and LDL were precipitated by the addition of 10 µL of precipitating reagent (1% (w/v) dextran sulfate (Dextralip50)/0.5 M magnesium chloride, pH 7.4) to all wells. The wells were mixed on a plate mixer and then incubated at ambient temperature for 10 min. The plates were then centrifuged at 1000 x g for 30 min at 10 °C. The supernatants (50 µL) from each well were then transferred to Picoplate™ 96 plate wells (Packard, Meriden. CT) containing Microscint™-40 (Packard, Meriden, CT). The plates were heat-sealed (TopSeal™-P, Packard, Meriden, CT) according to the manufacturer's directions and mixed for 30 min. Radioactivity was measured on a microplate scintillation counter (TopCount. Packard, Meriden, CT). The maximum percentage transfer in the control wells (% transfer) was determined using the following equation: % Transfer = ([dpmblank -dpmcontrol ] × 100)/(dpmblank) [formula]
The percentage of transfer relative to the control (% control) was determined in the wells containing inhibitor compounds was determined as follows: % Control = ([dpmblank -dpmtest ] × 100)/(dpmblank -dpmcontrol) [formula]
IC50 values were then calculated from plots of % control versus concentration of inhibitor compound. […]

CETP [2] = target: T1, CETP; assay: Assay of CETP inhibition using purified components (reconstituted buffer assay): transfer of [3H]CE from HDL to LDL; type: biochemical; parameters: made in house; host or cells: CHO cells (serum-free conditioned medium); settings: 2 hours at 37°C
Experimental: ASSAY OF CETP INHIBITION USING PURIFIED COMPONENTS (RECONSTITUTED BUFFER ASSAY)
The ability of compounds to inhibit CETP activity was assessed using an in vitro assay that measured the rate of transfer of radiolabeled cholesteryl ester ([^3H]CE) from HDL donor particles to LDL acceptor particles. Details of the assay are provided by Glenn, K. C. et al. (Glenn and Melton, "Quantification of Cholesteryl Ester Transfer Protein (CETP): A) CETP Activity and B) Immunochemical Assay of CETP Protein," Meth. Enzymol., 263, 339-351 (1996)). Human recombinant CETP can be obtained from the serum-free conditioned medium of CHO cells transfected with a cDNA for CETP and purified as described by Wang, S. et al. (J. Biol. Chem. 267, 17487-17490 (1992)). To measure CETP activity, [^3H]CE-labeled-HDL, LDL, CETP and assay buffer (50 mM tris(hydroxymethyl)aminomethane, pH 7.4; 150 mM sodium chloride; 2 mM ethylenediamine-tetraacetic acid (EDTA); 1% bovine serum albumin) were incubated in a final volume of 200 µL, for 2 hours at 37°C in 96 well plates. […] The inhibitors were then diluted 1:1 with CETP in assay buffer, and then 25 µL of that solution was mixed with 175 µL of lipoprotein pool for assay. Following incubation, LDL was differentially precipitated by the addition of 50 µL of 1% (w/v) dextran sulfate/0.5 M magnesium chloride, mixed by vortex, and incubated at room temperature for 10 minutes. A potion of the solution (200 µL) was transferred to a filter plate (Millipore). After filtration, the radioactivity present in the precipitated LDL was measured by liquid scintillation counting.
This value was defined as the IC50.

| IC50 (CETP [1]) [µM] | IC50 (CETP [2]) [µM] | SMILES |
| --- | --- | --- |
| > 100 | – | OC(CN(Cc1ccc(Cl)s1)c1cccc(OC(F)(F)F)c1)C(F)(F)F (centres unmarked) [Example 321, 3-[[(5-chloro-2-thienyl)methyl][(3-trifluoromethoxy)phenyl]amino]-1,1,1-trifluoro-2-propanol] |
| 100 | – | OC(CN(Cc1ccc(OC(F)(F)F)cc1)c1ccccc1)C(F)(F)F (centres unmarked) [compound 59] |
| 120 | 5.5 | OC(CN(Cc1ccc(OC(F)(F)F)cc1)c1cccc(OC(F)(F)F)c1)C(F)(F)F (centres unmarked) [compound 60] |
| 100 | – | OC(CN(Cc1cccc(OC(F)(F)F)c1)c1ccccc1)C(F)(F)F (centres unmarked) [compound 73] |
| 12 | 0.84 | Cc1ccc(Oc2cccc(N(Cc3cccc(OC(F)(F)C(F)F)c3)CC(O)C(F)(F)F)c2)cn1 (centres unmarked) [compound 282] |
| > 100 | 3.1 | OC(CN(Cc1cccc(OC(F)(F)C(F)F)c1)c1cccc(N2CCC(Cc3ccccc3)CC2)c1)C(F)(F)F (centres unmarked) [compound 316] |
| > 100 | 3.4 | OC(CN(Cc1cccc(OC(F)(F)C(F)F)c1)c1cccc(N2CCC3(CC2)OCCO3)c1)C(F)(F)F (centres unmarked) [compound 317] |
| > 100 | 7.7 | OC(CN(Cc1ccc(Cl)s1)c1cccc(OC(F)(F)F)c1)C(F)(F)F (centres unmarked) [compound 346] |
| 12 | 0.22 | OC(CN(Cc1cccc(OC(F)(F)C(F)F)c1)c1cccc(OCc2ccccc2)c1)C(F)(F)F (centres unmarked) [compound 373] |
| 8 | 0.47 | Cc1ccc(Oc2cccc(N(Cc3cccc(SC(F)(F)F)c3)CC(O)C(F)(F)F)c2)cc1 (centres unmarked) [compound 637] |
| 11 | 0.26 | OC(CN(Cc1cccc(OC(F)(F)C(F)F)c1)c1cccc(Oc2ccc(F)c(F)c2)c1)C(F)(F)F (centres unmarked) [compound 638] |
| 5 | 0.21 | OC(CN(Cc1cccc(OC(F)(F)C(F)F)c1)c1cccc(Oc2ccc(F)cc2F)c1)C(F)(F)F (centres unmarked) [compound 639] |
| 50 | 1.1 | OC(CN(Cc1cccc(SC(F)(F)F)c1)c1cc(Oc2ccc(F)cc2)cc(C(F)(F)F)c1)C(F)(F)F (centres unmarked) [compound 642] |
| 13 | 0.52 | CC(C)Oc1cccc(CN(CC(O)C(F)(F)F)c2cccc(Oc3ccc(F)cc3)c2)c1 (centres unmarked) [compound 647] |
| > 100 | 4.9 | CCCCOc1cccc(CN(CC(O)C(F)(F)F)c2cccc(Oc3ccc(F)cc3)c2)c1 (centres unmarked) [compound 649] |
| 30 | 0.41 | CCC(C)Oc1cccc(CN(CC(O)C(F)(F)F)c2cccc(Oc3ccc(F)cc3)c2)c1 (centres unmarked) [compound 650] |
| – | 0.99 | OC(CN(Cc1cccc(OCC2CC2)c1)c1cccc(Oc2ccc(F)cc2)c1)C(F)(F)F (centres unmarked) [compound 651] |
| – | 1.5 | CC(C)COc1cccc(CN(CC(O)C(F)(F)F)c2cccc(Oc3ccc(F)cc3)c2)c1 (centres unmarked) [compound 652] |
| 38 | 0.91 | OC(CN(Cc1cccc(OC2CCCC2)c1)c1cccc(Oc2ccc(F)cc2)c1)C(F)(F)F (centres unmarked) [compound 653] |
| 24 | 1 | N#Cc1ccc(Oc2cccc(N(Cc3cccc(OC(F)(F)C(F)F)c3)CC(O)C(F)(F)F)c2)cc1 (centres unmarked) [compound 657] |
| 30 | 0.44 | OC(CN(Cc1cccc(OC(F)(F)C(F)F)c1)c1cccc(Oc2ccc(OC(F)(F)F)cc2)c1)C(F)(F)F (centres unmarked) [compound 658] |
| – | > 100 | OC(CN(Cc1ccccc1C(F)(F)F)c1cccc(F)c1)C(F)(F)F (centres unmarked) [compound 670] |
| – | > 100 | Cc1ccccc1CN(CC(O)C(F)(F)F)c1cccc(F)c1 (centres unmarked) [compound 671] |
| – | 100 | Cc1ccc(CN(CC(O)C(F)(F)F)c2ccc(C(F)(F)F)cc2)cc1 (centres unmarked) [compound 672] |
| – | > 100 | OC(CN(Cc1cccc(Oc2cccc(C(F)(F)F)c2)c1)c1cccc(F)c1)C(F)(F)F (centres unmarked) [compound 674] |
| – | 100 | OC(CN(Cc1ccccc1F)Cc1ccccc1C(F)(F)F)C(F)(F)F (centres unmarked) [compound 696] |
| – | 55 | OC(CF)CN(Cc1cccc(OC(F)(F)F)c1)Cc1cccc(OC(F)(F)F)c1 (centres unmarked) [compound 697] |
| – | 100 | COc1cc2c(cc1N(Cc1cccc(OC(F)(F)F)c1)CC(O)C(F)(F)F)oc1ccccc12 (centres unmarked) [compound 698] |
| – | 4.5 | OC(COC(F)(F)C(F)F)CN(Cc1cccc(OC(F)(F)C(F)F)c1)c1cccc(Oc2ccc(F)cc2)c1 (centres unmarked) [compound 701] |
| – | 35 | OC(COC(F)(F)C(F)F)CN(Cc1cccc(OC(F)(F)C(F)F)c1)c1cccc(Oc2ccc(C(F)(F)F)cc2)c1 (centres unmarked) [compound 702] |

| SMILES | IC50 (CETP [1]) [µM] | IC50 (CETP [2]) [µM] |
| --- | --- | --- |
| CC(C)c1ccc(Oc2cccc(N(Cc3cccc(OC(F)(F)C(F)F)c3)CC(O)C(F)(F)F)c2)cc1 (centres unmarked) [compound 250] | 31 | 0.44 |
| OC(CN(Cc1cccc(OC(F)(F)C(F)F)c1)c1cccc(Oc2ccc(Cl)c(Cl)c2)c1)C(F)(F)F (centres unmarked) [compound 256] | 7.8 | – |
| CCCc1ccc(Oc2cccc(N(Cc3cccc(OC(F)(F)C(F)F)c3)CC(O)C(F)(F)F)c2)cc1 (centres unmarked) [compound 266] | 21 | – |
